Measurements taken from patent US12180207B2 (ARRAY BIOPHARMA INC., priority 2018, dated 2024).

Experiments:
[1] = molecular target: phosphorylated FGFR3 (SEQ ID NO: 5, amino acids 449 to 759) (Homo sapiens (Human), UniProt P22607); assay: FGFR enzyme binding assay (HTRF tracer displacement), FGFR3; conditions: 5 nM phosphorylated FGFR3, average of multiple determinations if made
Protocol: (§1) The potency of compounds inhibiting human isoforms of FGFR kinase was determined using Life Technologies' Homogeneous Time Resolved Fluorescence (HTRF)-based binding assay technology. […] After a 60 minute incubation at 22° C., the extent of tracer displacement was determined using a PerkinElmer EnVision multimode plate reader via HTRF dual wavelength detection, and the percent of control (POC) was calculated using a ratiometric emission factor. One hundred POC was determined using no test compound, and 0 POC was determined in the presence of 1 μM of an appropriate control inhibitor.

[2] = molecular target: dephosphorylated FGFR1 (SEQ ID NO: 1, amino acids 458 to 765) (Homo sapiens (Human), UniProt P11362); assay: FGFR enzyme binding assay (HTRF tracer displacement), FGFR1; conditions: 5 nM dephosphorylated FGFR1, average of multiple determinations if made
Sequence of dephosphorylated FGFR1 (SEQ ID NO: 1, amino acids 458 to 765) (P11362 458-765): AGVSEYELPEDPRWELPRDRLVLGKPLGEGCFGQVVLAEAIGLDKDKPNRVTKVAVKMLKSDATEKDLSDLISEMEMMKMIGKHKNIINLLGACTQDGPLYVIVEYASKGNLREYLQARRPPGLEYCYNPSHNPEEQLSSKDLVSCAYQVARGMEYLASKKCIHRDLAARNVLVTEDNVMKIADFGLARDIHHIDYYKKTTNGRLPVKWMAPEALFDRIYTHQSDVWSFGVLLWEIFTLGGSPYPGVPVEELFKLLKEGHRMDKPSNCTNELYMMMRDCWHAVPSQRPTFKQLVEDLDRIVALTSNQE
Protocol: as §1

[3] = molecular target: recombinant human FGFR2 cytoplasmic domain (amino acids 403-822) (Homo sapiens (Human), UniProt P21802); assay: FGFR2 enzyme activity assay (LanthaScreen TR-FRET); assay type: biochemical; conditions: 15 μM ATP, 20 min incubation at 22° C., average of multiple determinations if made, read-out: FGFR2 Enz FRET IC50
Sequence of recombinant human FGFR2 cytoplasmic domain (amino acids 403-822) (P21802 402-821): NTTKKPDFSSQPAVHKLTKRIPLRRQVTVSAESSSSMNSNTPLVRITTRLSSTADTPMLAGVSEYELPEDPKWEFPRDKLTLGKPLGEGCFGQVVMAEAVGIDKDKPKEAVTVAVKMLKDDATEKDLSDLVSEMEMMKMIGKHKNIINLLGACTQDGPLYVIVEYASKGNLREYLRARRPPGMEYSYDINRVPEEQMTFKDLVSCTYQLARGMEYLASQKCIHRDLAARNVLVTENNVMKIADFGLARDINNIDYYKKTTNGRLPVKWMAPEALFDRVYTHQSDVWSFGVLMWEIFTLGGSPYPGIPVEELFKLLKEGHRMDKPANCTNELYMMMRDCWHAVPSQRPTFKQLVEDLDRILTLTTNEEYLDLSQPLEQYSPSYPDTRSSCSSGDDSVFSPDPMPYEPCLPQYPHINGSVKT
Protocol: FGFR2 kinase activity was measured by the Invitrogen LanthaScreen™ Assay technology which directly measures the amount of substrate phosphorylation by TR-FRET using a fluorescently-labeled peptide and Europium-labeled antibody. Briefly, […] His-tagged recombinant human FGFR2 cytoplasmic domain (amino acids 403-822) (Life Technologies Cat. No. PR5332A) was incubated with 100 nM Alexa Fluor® 647-Poly-GT Peptide Substrate (Life Technologies Cat. No. PV5836) and 15 μM ATP along with test compound in a buffer consisting of 250 mM HEPES, 25 mM MgCl2, 0.05% TritonX-100, pH 7.5, and 2% DMSO. […] After a 20 minute incubation at 22° C., an equal volume of 2 nM LanthaScreen® Eu-PY20 Antibody (Life Technologies Cat. No. PV5691) and 10 mM EDTA were added to quench the kinase reaction and start the detection reaction. After an additional 60 minute incubation at 22° C., the reaction was measured using a PerkinElmer EnVision multimode plate reader via TR-FRET dual wavelength detection, and the percent of control (POC) calculated using a ratiometric emission factor. 100 POC was determined using no test compounds and 0 POC was determined using no enzyme. The POC values were fit to a 4-parameter logistic curve as a function of the concentration of the compound, and the IC50 value is the point where the curve crosses 50 POC.

[4] = molecular target: FGFR3 (SEQ ID NO: 5, amino acids 449-759) (Homo sapiens (Human), UniProt P22607); assay: LC/MS FGFR3 kobs assay (covalent protein modification); assay type: binding; conditions: 500 nM FGFR3, 3 μM compound
Sequence of FGFR3 (SEQ ID NO: 5, amino acids 449-759) (P22607 449-759): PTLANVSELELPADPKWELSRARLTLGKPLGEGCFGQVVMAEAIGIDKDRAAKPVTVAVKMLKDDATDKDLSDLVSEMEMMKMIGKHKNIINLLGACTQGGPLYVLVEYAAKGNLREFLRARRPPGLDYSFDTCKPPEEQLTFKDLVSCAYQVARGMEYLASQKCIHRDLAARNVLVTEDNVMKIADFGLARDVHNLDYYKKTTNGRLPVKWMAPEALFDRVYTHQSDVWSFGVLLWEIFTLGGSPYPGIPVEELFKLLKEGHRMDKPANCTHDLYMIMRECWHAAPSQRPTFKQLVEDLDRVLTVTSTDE
Protocol: The LC/MS FGFR1 and FGFR3 kobs assays were conducted as follows. […] At each time point, the reaction was quenched with 20 μL of 0.4% formic acid. The extent of protein modification by each compound was determined by LC/MS on an Agilent Technologies 6520 Q-TOF LC/MS. Protein signals were then automatically deconvoluted using Agilent Masshunter software. Deconvoluted mass signals were exported to Tibco Spotfire data analysis program for further processing and normalization.
Data analysis included five steps. First, the signals for the “DMSO Controls” were analyzed to determine the percent of signal associated with unmodified FGFR1 or FGFR3 at each time point. Next, the percent of the signal associated with the covalent modification was determined. Third, the average nonmodified “DMSO Control” signal was used to normalize the modified protein signals at each time point. The percent of unmodified protein was fit to an exponential decay model where A0 is the Percent Unmodified at the start of the reaction, and kobs is the observed rate constant over the time period.
Table EC contains kobs values for compounds tested in these assays, presented as the average of multiple determinations if multiple determinations were made. ND=not determined.

[5] = molecular target: recombinant human FGFR3 (amino acids R397-T806) (Homo sapiens (Human), UniProt P22607); assay: FGFR3 enzyme activity assay (LanthaScreen TR-FRET); assay type: biochemical; conditions: 25 μM ATP, 10 min incubation at 22° C., average of multiple determinations if made, read-out: FGFR3 Enz FRET IC50
Sequence of recombinant human FGFR3 (amino acids R397-T806) (P22607 397-806): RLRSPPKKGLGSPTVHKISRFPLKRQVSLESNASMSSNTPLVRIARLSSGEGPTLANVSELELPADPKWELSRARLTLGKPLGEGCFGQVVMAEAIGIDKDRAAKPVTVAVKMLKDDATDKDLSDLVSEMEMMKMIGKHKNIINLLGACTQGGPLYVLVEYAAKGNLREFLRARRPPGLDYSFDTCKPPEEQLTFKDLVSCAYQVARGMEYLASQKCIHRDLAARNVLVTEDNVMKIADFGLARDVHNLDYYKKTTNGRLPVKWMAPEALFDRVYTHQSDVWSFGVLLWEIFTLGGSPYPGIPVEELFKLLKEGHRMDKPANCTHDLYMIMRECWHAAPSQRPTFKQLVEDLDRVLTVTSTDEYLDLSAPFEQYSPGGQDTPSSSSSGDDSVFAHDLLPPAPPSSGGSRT
Protocol: FGFR3 kinase activity was measured by the Invitrogen LanthaScreen™ Assay technology which directly measures the amount of substrate phosphorylation by TR-FRET using a fluorescently-labeled peptide and Europium-labeled antibody. Briefly, […] N-terminal GST-HIS6 fusion protein with a 3C cleavage site recombinant human FGFR3 (amino acids R397-T806) (ProQinase Cat. No. 1068-0000-1) was incubated with 100 nM Alexa Fluor® 647-Poly-GT Peptide Substrate (Life Technologies Cat. No. PV5836) and 25 μM ATP along with test compound in a buffer consisting of 250 mM HEPES, 25 mM MgCl2, 0.05% TritonX-100, pH 7.5, and 2% DMSO. […] After a 10 minute incubation at 22° C., an equal volume of 2 nM LanthaScreen® Eu-PY20 Antibody (Life Technologies Cat. No. PV5691) and 10 mM EDTA were added to quench the kinase reaction and start the detection reaction. After an additional 60 minute incubation at 22° C., the reaction was measured using a PerkinElmer EnVision multimode plate reader via TR-FRET dual wavelength detection, and the percent of control (POC) calculated using a ratiometric emission factor. 100 POC was determined using no test compounds and 0 POC was determined using no enzyme. The POC values were fit to a 4-parameter logistic curve as a function of the concentration of the compound, and the IC50 value is the point where the curve crosses 50 POC.

[6] = molecular target: recombinant human FGFR1 catalytic domain (amino acids 308-731) (Homo sapiens (Human), UniProt P11362); assay: FGFR1 enzyme activity assay (LanthaScreen TR-FRET); assay type: biochemical; conditions: 20 min incubation at 22° C., average of multiple determinations if made, read-out: FGFR1 Enz FRET IC50
Sequence of recombinant human FGFR1 catalytic domain (amino acids 308-731) (P11362 other isoform, or with tags, fused parts or gaps): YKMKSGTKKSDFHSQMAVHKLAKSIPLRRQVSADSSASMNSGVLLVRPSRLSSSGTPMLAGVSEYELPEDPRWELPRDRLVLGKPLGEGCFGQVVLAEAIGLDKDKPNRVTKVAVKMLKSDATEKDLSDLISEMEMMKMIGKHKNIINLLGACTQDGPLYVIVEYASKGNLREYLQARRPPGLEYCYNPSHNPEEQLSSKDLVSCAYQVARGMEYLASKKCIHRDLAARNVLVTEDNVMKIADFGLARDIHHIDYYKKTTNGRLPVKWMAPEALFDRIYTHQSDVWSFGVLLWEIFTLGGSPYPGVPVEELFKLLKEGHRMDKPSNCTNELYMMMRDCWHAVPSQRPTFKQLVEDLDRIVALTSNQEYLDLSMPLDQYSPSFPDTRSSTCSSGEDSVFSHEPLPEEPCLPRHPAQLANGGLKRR
Protocol: FGFR1 kinase activity was measured by the Invitrogen LanthaScreen™ Assay technology which directly measures the amount of substrate phosphorylation by Time-resolved fluorescence energy transfer (TR-FRET) using a fluorescently-labeled peptide and Europium-labeled antibody. Briefly, […] His-tagged recombinant human FGFR1 catalytic domain (amino acids 308-731) (Life Technologies Cat. No. PR4660A) was incubated with 100 nM Alexa Fluor® 647-Poly-GT Peptide Substrate (Life Technologies Cat. No. PV5836) and […] ATP along with test compound in a buffer consisting of 250 mM HEPES, 25 mM MgCl2, 0.05% TritonX-100, pH 7.5, and 2% DMSO. […] After a 20 minutes incubation at 22° C., an equal volume of 2 nM LanthaScreen® Eu-PY20 Antibody (Life Technologies Cat. No. PV5691) and 10 mM EDTA was added to quench the kinase reaction and start the detection reaction. After an additional 60 minute incubation at 22° C., the reaction was measured using a PerkinElmer EnVision multimode plate reader via TR-FRET dual wavelength detection, and the percent of control (POC) calculated using a ratiometric emission factor. 100 POC was determined using no test compounds and 0 POC was determined using no enzyme. The POC values were fit to a 4-parameter logistic curve as a function of the concentration of the compound, and the IC50 value is the point where the curve crosses 50 POC.

Sequence of phosphorylated FGFR3 (SEQ ID NO: 5, amino acids 449 to 759) (P22607 449-759): as the sequence (P22607 449-759) above

Structure (SMILES) | IC50 [1] [nM] | IC50 [2] [nM] | IC50 [3] [nM] | FGFR3 Enz kobs [4] [min⁻¹] | IC50 [5] [nM] | IC50 [6] [nM]
C=CC(=O)N[C@H]1CC[C@H](C(=O)N2CCC(n3cc(-c4cc(OC)c5c(C#N)cnn5c4)cn3)CC2)CC1 [Example 18, N-((1r,4r)-4-(4-(4-(3-cyano-4-methoxypyrazolo[1,5-a]pyridin-6-yl)-1H-pyrazol-1-yl)piperidine-1-carbonyl)cyclohexyl)acryl-amide] | 26 | 131 | 4 | 0.0004 | 2 | 18
C=CC(=O)N[C@H]1CC[C@@H](C(=O)N2CCC(n3cc(-c4cc(OC)c5c(C#N)cnn5c4)cn3)CC2)CC1 [Example 20, N-((1s,4s)-4-(4-(4-(3-cyano-4-methoxypyrazolo[1,5-a]pyridin-6-yl)-1H-pyrazol-1-yl)piperidine-1-carbonyl)cyclohexyl)acryl-amide] | 18 | 93 | 3 | 0.00051 | 3 | 14
C=CC(=O)N1CCC(Oc2cccc(-n3cc(-c4cc(OC)c5c(C#N)cnn5c4)cn3)c2)CC1 [Example 26, 6-(1-(3-((1-acryloylpiperidin-4-yl)oxy)phenyl)-1H-pyrazol-4-yl)-4-methoxypyrazolo[1,5-a]pyridine-3-carbonitrile] | 128 | 552 | 42 | 0.0007 | 58 | 188
C=CC(=O)N[C@H]1C[C@@H](C(=O)N2CCC(n3cc(-c4cc(OC)c5c(C#N)cnn5c4)cn3)CC2)C1 [Example 44, N-((1s,3s)-3-(4-(4-(3-cyano-4-methoxypyrazolo[1,5-a]pyridin-6-yl)-1H-pyrazol-1-yl)piperidine-1-carbonyl)cyclobutyl)acryl-amide] | 20 | – | 3 | 0.001 | 2 | –
C=CC(=O)N[C@H]1C[C@H](C(=O)N2CCC(n3cc(-c4cc(OC)c5c(C#N)cnn5c4)cn3)CC2)C1 [Example 45, N-((1r,3r)-3-(4-(4-(3-cyano-4-methoxypyrazolo[1,5-a]pyridin-6-yl)-1H-pyrazol-1-yl)piperidine-1-carbonyl)cyclobutyl)acryl-amide] | 44 | – | 9 | 0.00116 | 8 | –
C=CC(=O)NC1C2CC1C2C(=O)N1CCC(n2cc(-c3cc(OC)c4c(C#N)cnn4c3)cn2)CC1 (stereo not shown) [Example 46, N-(4-(4-(4-(3-cyano-4-methoxypyrazolo[1,5-a]pyridin-6-yl)-1H-pyrazol-1-yl)piperidine-1-carbonyl)bicyclo[1.1.1]pentan-2-yl)acrylamide] | 4 | 23 | 2 | 0.00153 | 3 | 12
C=CC(=O)N1CCC(C(=O)N2CC[C@@H](n3cc(-c4cc(OC)c5c(C#N)cnn5c4)cn3)C2)CC1 [Example 53, (R)-6-(1-(1-(1-acryloylpiperidine-4-carbonyl)pyrrolidin-3-yl)-1H-pyrazol-4-yl)-4-methoxypyrazolo[1,5-a]pyridine-3-carbonitrile] | 31 | – | 7 | 0.00112 | 3 | –
C=CC(=O)N[C@H]1CC[C@H](C(=O)N2CC[C@@H](n3cc(-c4cc(OC)c5c(C#N)cnn5c4)cn3)C2)CC1 [Example 54, N-((1R,4r)-4-((R)-3-(4-(3-cyano-4-methoxypyrazolo[1,5-a]pyridin-6-yl)-1H-pyrazol-1-yl)pyrrolidine-1-carbonyl)cyclohexyl)acryl-amide] | 25 | 142 | 16 | 0.00025 | 16 | 47
C=CC(=O)N[C@H]1C[C@H](C(=O)N2CC[C@@H](n3cc(-c4cc(OC)c5c(C#N)cnn5c4)cn3)C2)C1 [Example 60, N-((1R,3r)-3-((R)-3-(4-(3-cyano-4-methoxypyrazolo[1,5-a]pyridin-6-yl)-1H-pyrazol-1-yl)pyrrolidine-1-carbonyl)cyclobutyl)acryl-amide] | 32 | 203 | 7 | 0.00083 | 7 | 31
C=CC(=O)N[C@H]1C[C@@H](C(=O)N2CC[C@@H](n3cc(-c4cc(OC)c5c(C#N)cnn5c4)cn3)C2)C1 [Example 61, N-((1S,3s)-3-((R)-3-(4-(3-cyano-4-methoxypyrazolo[1,5-a]pyridin-6-yl)-1H-pyrazol-1-yl)pyrrolidine-1-carbonyl)cyclobutyl)acryl-amide] | 61 | 346 | 6 | 0.00064 | 5 | 28
C=CC(=O)N1CCC(C(=O)N2CC[C@H](n3cc(-c4cc(OC)c5c(C#N)cnn5c4)cn3)C2)CC1 [Example 62, (S)-6-(1-(1-(1-acryloylpiperidine-4-carbonyl)pyrrolidin-3-yl)-1H-pyrazol-4-yl)-4-methoxypyrazolo[1,5-a]pyridine-3-carbonitrile] | 64 | – | 5 | 0.00106 | 2 | –
